Test results taken from patent US11202834B2, “Synthesis and processing of poly(pro-drug) materials for extended drug release and uses thereof” (RENSSELAER POLYTECHNIC INSTITUTE, priority 2018, dated 2021).

Experiments:
[1] = test system: whole dorsal root ganglion (DRG); test: neurite extension of whole dorsal root ganglion cultured on scaffolds; format: cell-based; conditions: DRG on PLLA/PLLA scaffolds with 100 nM bolus of exogenous E2 at the beginning of culture
Method: To examine the bioactivity of E2 released during poly(pro-drug) material degradation and the effects of sustained E2 release on neurons, whole dorsal root ganglion (DRG) were cultured on poly(pro-drug) material films to examine the ability of the poly(pro-drug) material to promote neurite extension. To analyze material-derived neurite extension, DRG were cultured onto three types of scaffolds: 1) PLLA fibers electrospun onto a PLLA film (PLLA/PLLA), 2) PLLA fibers electrospun on to a PLLA film with a 100 nM bolus of exogenous E2 at the beginning of culture (PLLA/PLLA+Exo E2), and 3) PLLA fibers electrospun onto a poly(pro-drug) material film (PLLA/P1). […] PLLA fibers were used in this experiment to isolate the effects of E2 released the poly(pro-drug) material as the only factor influencing DRG neurite extension.

[2] = not told

Young's modulus (Er) [2] [GPa] | Molecule | average neurite outgrowth from DRG [1] [μm]
 | C[C@]12CC[C@@H]3c4ccc(O)cc4CC[C@H]3[C@@H]1CC[C@@H]2O [E2, 17β-Estradiol] | 526.7±273.4
5.38±1.06 | poly(L-lactic acid) [PLLA] | 
